Values quoted from earlier work, collected in patent US12708665B2, “Anti-IL-1β antibody therapy in arrhythmogenic cardiomyopathy (ACM)” (Beth Israel Deaconess Medical Center, Inc., priority 2019, dated 2026).

Tests used:
[1] = tested on: in vitro and in vivo models of ACM; conditions: multiple in vitro and in vivo models of ACM, human iPSC-cardiac myocytes from ACM patients; cited from earlier work
[2] = tested on: patients with coronary artery disease; conditions: cited from earlier work

Cn1cc(C2=C(c3ccc(Cl)cc3Cl)C(=O)NC2=O)c2ccccc21 [SB216763]
effect on ACM disease phenotype (arrhythmias, exercise-induced sudden death, myocyte injury and apoptosis, inflammation, contractile dysfunction) [1]: prevent and/or reverse the full ACM disease phenotype

monoclonal antibody against IL-1β: monoclonal antibody against IL-1β used in the CANTOS trial (ref. 36)
infectious complications related to immunosuppression ([2]; in vivo): not associated with significant infectious complications | major adverse cardiac events ([2]; patients with coronary artery disease, CANTOS trial): significantly reduced
